Laboratory results from the supplement of paper PMC10307832.

Assays:
Assay in all cases: relative viability (nuclei count vs DMSO), 5 days (fraction); higher = more cells survive
Bexarotene + Pemetrexed = compound: C=C(c1ccc(C(=O)O)cc1)c1cc2c(cc1C)C(C)(C)CCC2(C)C [Bexarotene] + Nc1nc2[nH]cc(CCc3ccc(C(=O)N[C@@H](CCC(=O)O)C(=O)O)cc3)c2c(=O)[nH]1 [Pemetrexed] (partner 0.2 µM)
Method in brief: (§1)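 Values are medians from duplicate plates. Each reflects relative viability, defined as the nuclei count of treated wells over that of vehicle wells. Lung cancer cell lines in 1536-well plates were pin-tool dosed one day after seeding with one drug alone or with a fixed anchor-drug dose plus five library-drug doses (not always all listed) in √10 steps, then fixed, stained and imaged at 4× after 5 days.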

Bexarotene + OSI-027 = compound: C=C(c1ccc(C(=O)O)cc1)c1cc2c(cc1C)C(C)(C)CCC2(C)C [Bexarotene] + COc1cccc2cc(-c3nc([C@H]4CC[C@H](C(=O)O)CC4)n4ncnc(N)c34)[nH]c12 [OSI-027] (partner 0.5 µM)
Method in brief: as §1

Bexarotene + Foretinib = compound: C=C(c1ccc(C(=O)O)cc1)c1cc2c(cc1C)C(C)(C)CCC2(C)C [Bexarotene] + COc1cc2c(Oc3ccc(NC(=O)C4(C(=O)Nc5ccc(F)cc5)CC4)cc3F)ccnc2cc1OCCCN1CCOCC1 [Foretinib] (partner 0.25 µM)
Method in brief: as §1

Bexarotene + AZD7762 = compound: C=C(c1ccc(C(=O)O)cc1)c1cc2c(cc1C)C(C)(C)CCC2(C)C [Bexarotene] + NC(=O)Nc1cc(-c2cccc(F)c2)sc1C(=O)N[C@H]1CCCNC1 [AZD7762] (partner 0.2 µM)
Method in brief: as §1

| Cell Line | relative viability (Bexarotene + Pemetrexed; first compound 0.08 µM) | relative viability (Bexarotene + Pemetrexed; first compound 0.253 µM) | relative viability (Bexarotene + Pemetrexed; first compound 0.8 µM) | relative viability (Bexarotene + Pemetrexed; first compound 2.53 µM) | relative viability (Bexarotene + Pemetrexed; first compound 8 µM) | relative viability (Bexarotene + OSI-027; first compound 0.08 µM) | relative viability (Bexarotene + OSI-027; first compound 0.253 µM) | relative viability (Bexarotene + OSI-027; first compound 0.8 µM) | relative viability (Bexarotene + OSI-027; first compound 2.53 µM) | relative viability (Bexarotene + OSI-027; first compound 8 µM) | relative viability (Bexarotene + Foretinib; first compound 0.08 µM) | relative viability (Bexarotene + Foretinib; first compound 0.253 µM) | relative viability (Bexarotene + Foretinib; first compound 0.8 µM) | relative viability (Bexarotene + Foretinib; first compound 2.53 µM) | relative viability (Bexarotene + Foretinib; first compound 8 µM) | relative viability (Bexarotene + AZD7762; first compound 0.08 µM) | relative viability (Bexarotene + AZD7762; first compound 0.253 µM) | relative viability (Bexarotene + AZD7762; first compound 0.8 µM) | relative viability (Bexarotene + AZD7762; first compound 2.53 µM) | relative viability (Bexarotene + AZD7762; first compound 8 µM) |
| --- | --- | --- | --- | --- | --- | --- | --- | --- | --- | --- | --- | --- | --- | --- | --- | --- | --- | --- | --- | --- |
| NCI-H661 | 1.05 | 0.91 | 0.892 | 0.872 | 0.869 | 0.631 | 0.665 | 0.647 | 0.623 | 0.635 | 1.02 | 1.04 | 0.916 | 0.967 | 0.933 |  |  |  |  |  |
| UMC-11 | 0.77 | 0.764 | 0.786 | 0.77 | 0.803 | 0.468 | 0.515 | 0.419 | 0.436 | 0.432 | 1.1 | 1.01 | 0.946 | 1.07 | 0.956 |  |  |  |  |  |
| NCI-H1650 | 0.353 | 0.371 | 0.352 | 0.379 | 0.432 | 0.612 | 0.734 | 0.598 | 0.726 | 0.622 | 1.13 | 0.988 | 1.09 | 1.18 | 1.11 |  |  |  |  |  |
| EBC-1 |  |  |  |  |  |  |  |  |  |  | 0.111 | 0.124 | 0.101 | 0.129 | 0.112 |  |  |  |  |  |
| SK-LU-1 | 1.03 | 1.03 |  | 0.944 | 0.923 | 0.41 | 0.395 |  | 0.352 | 0.351 | 0.785 | 0.898 |  | 0.791 | 0.762 |  |  |  |  |  |
| SK-MES-1 | 1.04 | 1.12 | 1.08 | 0.961 | 0.735 | 0.638 | 0.708 | 0.563 | 0.603 | 0.525 | 1.1 | 0.959 | 1.02 | 1.03 | 0.866 |  |  |  |  |  |
| NCI-H1792 | 1.1 | 0.848 | 0.487 | 0.482 | 0.455 | 0.739 | 0.757 | 0.681 | 0.764 | 0.68 |  |  |  |  |  | 0.64 | 0.572 | 0.526 | 0.593 | 0.526 |
| SW 1573 | 0.911 | 0.814 | 0.897 | 0.751 | 0.847 | 0.696 | 0.58 | 0.564 | 0.469 | 0.471 | 1.02 | 0.831 | 0.661 | 0.669 | 0.666 |  |  |  |  |  |
| A549 |  |  |  |  |  |  |  |  |  |  | 1.01 | 0.875 | 0.856 | 0.864 | 0.718 |  |  |  |  |  |
| NCI-H1703 |  |  |  |  |  |  |  |  |  |  | 0.393 | 0.377 | 0.411 | 0.399 | 0.42 | 0.157 | 0.128 | 0.127 | 0.115 | 0.119 |
| NCI-H520 | 0.799 | 0.663 | 0.717 | 0.797 | 0.708 | 0.238 | 0.207 | 0.276 | 0.222 | 0.241 | 0.854 | 0.678 | 0.652 | 0.812 | 0.727 |  |  |  |  |  |
| NCI-H1563 | 0.753 | 0.632 | 0.745 | 0.682 | 0.85 | 0.842 | 0.787 | 0.813 | 0.897 | 0.849 | 1.04 | 0.868 | 0.824 | 0.989 | 0.85 |  |  |  |  |  |
| NCI-H2009 | 1.09 | 1.04 | 1.12 | 0.973 | 0.998 | 0.729 | 0.705 | 0.584 | 0.547 | 0.598 | 1.33 | 1.34 | 1.24 | 1.29 | 1.19 |  |  |  |  |  |
